Measured values reported in PubChem BioAssay (NCI).
Values joined by “and” are separate entries in the source; they are usually repeats but may differ in a detail not shown here. Equal values may be shown once.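 Following 48 hours of exposure in 96-well plates, responses at five concentrations were used to interpolate endpoints linearly. GI50 is the concentration that inhibits growth by half. TGI marks complete inhibition of growth.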

Experiments:
Experiment in all cases: NCI anticancer screen, dose series, 48 h
NCI-H460 lung = test system: NCI-H460 lung
K-562 leukemia = test system: K-562 leukemia
NCI/ADR-RES ovarian = test system: NCI/ADR-RES ovarian
NCI-H226 lung = test system: NCI-H226 lung
M14 melanoma = test system: M14 melanoma
LOX IMVI melanoma = test system: LOX IMVI melanoma
MOLT-4 leukemia = test system: MOLT-4 leukemia
PC-3 prostate = test system: PC-3 prostate
CCRF-CEM leukemia = test system: CCRF-CEM leukemia
MALME-3M melanoma = test system: MALME-3M melanoma

| SMILES | GI50 (NCI-H460 lung) [µM] | TGI (NCI-H460 lung) [µM] | GI50 (K-562 leukemia) [µM] | TGI (K-562 leukemia) [µM] | GI50 (NCI/ADR-RES ovarian) [µM] | TGI (NCI/ADR-RES ovarian) | GI50 (NCI-H226 lung) [µM] | TGI (NCI-H226 lung) [µM] | GI50 (M14 melanoma) [µM] | TGI (M14 melanoma) | GI50 (LOX IMVI melanoma) [µM] | TGI (LOX IMVI melanoma) | GI50 (MOLT-4 leukemia) [µM] | TGI (MOLT-4 leukemia) | GI50 (PC-3 prostate) [µM] | TGI (PC-3 prostate) | GI50 (CCRF-CEM leukemia) [µM] | TGI (CCRF-CEM leukemia) [µM] | GI50 (MALME-3M melanoma) [µM] | TGI (MALME-3M melanoma) |
| --- | --- | --- | --- | --- | --- | --- | --- | --- | --- | --- | --- | --- | --- | --- | --- | --- | --- | --- | --- | --- |
| Cn1ccnc1C(=O)/C=C/c1ccc(C(=O)Nc2c(F)c(F)c(F)c(F)c2F)cc1 | 1.78 | 5.11 | 0.526 | 2.83 | 3.09 | 12.9 µM | 2.7 | 8.49 | 1.77 | 3.7 µM | 1.5 | 2.87 µM | 1.91 | 4.81 µM | 1.62 | 6.54 µM | 1.68 | 4.95 | 2.1 | 5.91 µM |
| Fc1ccc(-c2nn3c(COc4ccc(Cl)cc4)nnc3s2)cc1Oc1ccccc1 | 23.9 | > 54.5 | 42.1 | > 100 | 30.5 | 95.5 µM | 28.7 | 84.4 | > 49.5 | > 79.3 µM | > 42.2 | > 56.3 µM | 3.51 | 17.7 µM | 0.0735 | 13.6 µM | 22.4 | 74.4 | 29 | 67.4 µM |
| CC1=C2[C@@H](CC1)[C@]1(C)O[C@@](C3CC3)(C[C@H]1OC(=O)CO)[C@H]2OC(=O)/C=C/c1ccccc1 | 16.6 | 33.1 | 16.1 | 46 | 0.103 | 14.1 µM | 16.2 | 36.5 | 16.4 | 32.3 µM | 15.1 | 31.8 µM | 15.1 | 36.9 µM | 13 | 28.4 µM | 17.4 | 39.7 | 15.6 | 32.8 µM |
| C#CC#CC#CC#CC#CC#CC#CC#CC[C@@H]1OC[C@@H](COC(=O)O[C@@H](C(=O)O[C@H]2C[C@@]3(O)[C@@H](OC(=O)c4ccccc4)[C@@H]4[C@]5(OC(C)=O)CO[C@@H]5C[C@H](O)[C@@]4(C)C(=O)[C@H](OC(C)=O)C(=C2C)C3(C)C)[C@@H](NC(=O)c2ccccc2)c2ccccc2)O1 | 0.101 | > 33.3 | 0.17 | > 33.3 | > 33.3 | > 33.3 µM | > 9.56 | > 33.3 | 0.165 | 1.38 µM | 0.0935 | > 33.3 µM | 0.362 | > 33.3 µM | 0.345 | > 33.3 µM | 0.354 | > 33.3 | 0.721 | > 33.3 µM |
| CC1OC(OC2C(O[C@H]3CC[C@@]4(C)C(=CC[C@H]5[C@@H]6C[C@@H]7O[C@]8(CC[C@@H](C)CO8)[C@@H](C)[C@@H]7[C@@]6(C)CC[C@@H]54)C3)OC(CO)C(OC3OC(CO)C(O)C3O)C2O)C(O)C(O)C1O (stereo partly specified) |  | 1.53 |  | 50 | 1.19 | 1.79 µM and 2.44 µM |  | 1.73 | 0.205 | 1.43 µM and 0.362 µM | 0.21 | 1.19 µM and 0.517 µM | 0.187 | 1.8 µM and 0.412 µM | 0.533 | 1.48 µM and 1.78 µM |  | 0.413 | 0.324 | 1.61 µM and 0.891 µM |
| CN(C)c1ccc(C2CC(C)(O)Oc3cc4c(cc32)OCO4)cc1 (stereo unspecified) |  | > 100 |  | > 100 |  | > 100 µM |  | > 100 |  | > 100 µM |  | > 100 µM |  | > 100 µM |  | > 100 µM |  | > 100 |  | > 100 µM |
| Nc1ncnc2c1nc(Cl)n2C1OC(CO)C(O)C1O (stereo unspecified) |  | > 100 |  | > 100 |  | > 100 µM |  | > 85.2 |  | > 100 µM |  | > 100 µM |  | > 100 µM |  | > 71.2 µM |  | > 25.5 |  | > 100 µM |
